From patent US20220289732A1, “HETEROCYCLIC WDR5 INHIBITORS AS ANTI-CANCER COMPOUNDS” (NOVARTIS AG, priority 2019, published 2022)

Experiments:
WDR5 = WDR5 (Homo sapiens, UniProt P61964); test: WDR5 HTRF binding assay; details: read-out: (a) WDR5 HTRF Pep Val v.1[Inhibitor/IC50]Qualified AC50
Summary of the method: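 In this HTRF displacement format, biotinylated MLL1 WIN peptide (3762-3773, 20 nM) binds WDR5 (6 nM) in 25 mM Hepes pH 7.5 with 100 mM NaCl, 2 mM DTT and 0.1% BSA for 20 min at rt. Detection used streptavidin-APC/anti-His-Eu for 1 hr. IC50 came from dose-response fits of normalized signal; 15 nM biotin-PEG-His peptide served as counter assay.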

[1] = target: wild type MLL1 four-member complex (MLL1-4C) (Homo sapiens, UniProt P61964); test: MLL1 LC-MS assay (SAH production); format: biochemical; details: read-out: (b) MLL LCMS Peptide Val.v.1 Qualified AC50
Summary of the method: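 SAH formation, measured by LC-MS/MS after a TFA quench containing d4-SAH, was normalised to no-compound and no-enzyme controls and fitted to a dose-response curve for IC50. Reactions ran 120 min at rt (pH 8.0 Tris buffer) with final 30 nM MLL1 four-member complex, 2.5 μM SAM and 10 μM biotinylated H3[1-21] peptide, after a 20-min enzyme/SAM-compound preincubation.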

MV4-11 cells = test: MV4-11 6-day cell growth CTG (CellTiter-Glo) assay; format: cell-based; details: Homo sapiens, MV4-11, 144 h, 6 days, read-out: (c) MLL/WDR5 cell proliferation assay//MLL/WDR5 proliferation MV4:11 Qualified AC50
Summary of the method: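 IC50 comes from a dose-response fit of % inhibition relative to DMSO controls, with viable cells measured by CellTiter-Glo luminescence. Compounds were tested over 12 points (1:3, starting at 50 μM final) on MV4-11 cells plated at 300/well and grown 6 days.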

Compound	IC50 (WDR5)	AC50 [1]	AC50 (MV4-11 cells)
CCOc1cc([C@H](C)N2CCc3c(cc(Cn4ccnc4C)cc3-c3nn(C)cc3C)C2=O)ncc1C#N [Example 277]	0.01 to 1 µM	0.01 to 1 µM	0.01 to 1 µM
CCOc1cc([C@H](C)N2CCc3c(cc(Cn4cncc4C)cc3-c3cn(C)nc3C)C2=O)ncc1C#N [Example 289]	< 0.01 µM	0.01 to 1 µM	1 to 25 µM
CCOc1cc([C@H](C)N2CCc3c(cc(Cn4ccnc4C)cc3-c3nn(C)nc3C)C2=O)ncc1C#N [Example 290]	< 0.01 µM	0.01 to 1 µM	0.01 to 1 µM
CCOc1cc([C@H](C)N2CCc3c(cc(Cn4ccnc4C)cc3-c3nn(C)c(=O)cc3C(F)(F)F)C2=O)ncc1C#N [Example 291]	0.01 to 1 µM	0.01 to 1 µM	0.01 to 1 µM
CCOc1cc([C@H](C)N2CCc3c(cc(Cn4ccnc4C)cc3-c3cn(C)c(=O)cc3Cl)C2=O)ncc1C#N [Example 292]	0.01 to 1 µM	0.01 to 1 µM	0.01 to 1 µM
CCOc1cc([C@H](C)N2CCc3c(cc(Cn4ccnc4C)cc3-c3nc(C(F)F)nn3C)C2=O)ncc1C#N [Example 293]	0.01 to 1 µM	0.01 to 1 µM	0.01 to 1 µM
CCOc1cc([C@H](C)N2CCc3c(cc(Cn4ccnc4C)cc3-n3nc(C)nc3C(F)F)C2=O)ncc1C#N [Example 294]	0.01 to 1 µM	0.01 to 1 µM	0.01 to 1 µM
CCOc1cc([C@H](C)N2CCc3c(CN(C)C)cc(Cn4ccnc4C)cc3C2=O)ncc1C#N [Example 295]	0.01 to 1 µM	0.01 to 1 µM	1 to 25 µM
COc1cc([C@H](C)N2CCc3c(cc(Cn4ccnc4C)cc3-c3nn(C)c(=O)cc3C(F)(F)F)C2=O)ncc1C#N [Example 296]	0.01 to 1 µM	0.01 to 1 µM	0.01 to 1 µM
CCOc1cc(CN2CCc3c(cc(Cn4ccnc4C)cc3-c3cn(C)c(=O)cc3C(F)(F)F)C2=O)ncc1C#N [Example 297]	< 0.01 µM	0.01 to 1 µM	< 0.01 µM
CCOc1cc(CN2CCc3c(cc(Cn4ccnc4C)cc3-n3nc(C)nc3C(F)F)C2=O)ncc1C#N [Example 298]	< 0.01 µM	0.01 to 1 µM	0.01 to 1 µM
CCOc1cc(CN2CCc3c(cc(Cn4ccnc4C)cc3-c3cn(C)c(=O)cc3C(F)F)C2=O)ncc1C#N [Example 299]	< 0.01 µM	0.01 to 1 µM	0.01 to 1 µM
CCOc1cc(C(C)N2CCc3c(cc(CCN(C)CC)cc3C(C)(O)C(F)(F)F)C2=O)ncc1C#N (stereo not drawn) [Example 304, 4-ethoxy-6-(1-(7-(2-(ethyl(methyl)amino)ethyl)-1-oxo-5-(1,1,1-trifluoro-2-hydroxypropan-2-yl)-3,4-dihydroisoquinolin-2(1H)-yl)ethyl)nicotinonitrile]	0.01 to 1 µM	0.01 to 1 µM	1 to 25 µM
CCOc1cc(CN2CCc3c(cc(CCN(C)CC)cc3C(OC)C(F)(F)F)C2=O)ncc1C#N (stereo not drawn) [Example 305, 4-ethoxy-6-((7-(2-(ethyl(methyl)amino)ethyl)-1-oxo-5-(2,2,2-trifluoro-1-methoxyethyl)-3,4-dihydroisoquinolin-2(1H)-yl)methyl)nicotinonitrile]	0.01 to 1 µM	0.01 to 1 µM	0.01 to 1 µM
CCOc1cc(C(C)N2CCc3c(cc(CCN(C)CC)cc3C(O)C(C)(C)C)C2=O)ncc1C#N (stereo not drawn) [compound 257]	0.01 to 1 µM	0.01 to 1 µM	0.01 to 1 µM
CCOc1cc(C(C)N2CCc3c(cc(CCN(C)CC)cc3C(O)C(F)(F)F)C2=O)ncc1F (stereo not drawn) [compound 260]	0.01 to 1 µM	0.01 to 1 µM	0.01 to 1 µM

Second part, led by results:

IC50 (WDR5)	AC50 [1]	Compound	AC50 (MV4-11 cells)
< 0.01 µM	0.01 to 1 µM	CCOc1cc([C@H](C)N2CCc3c(cc(Cn4ccnc4C)cc3-c3cn(CCO)nc3C)C2=O)ncc1C#N [Example 271]	0.01 to 1 µM
< 0.01 µM	0.01 to 1 µM	CCOc1cc([C@H](C)N2CCc3c(cc(Cn4cc(C)nc4C)cc3-c3cn(CCO)nc3C)C2=O)ncc1C#N [Example 272]	0.01 to 1 µM
< 0.01 µM	0.01 to 1 µM	CCOc1cc([C@H](C)N2CCc3c(cc(Cn4cc(C)nc4C)cc3-c3cn(C)nc3C)C2=O)ncc1C#N [Example 273]	0.01 to 1 µM
< 0.01 µM	0.01 to 1 µM	CCOc1cc([C@H](C)N2CCc3c(cc(Cn4cc(C)nc4C)cc3-c3cn(C)c(=O)cc3C)C2=O)ncc1C#N [Example 274]	0.01 to 1 µM
< 0.01 µM	0.01 to 1 µM	CCOc1cc([C@H](C)N2CCc3c(cc(Cn4ccnc4C)cc3-c3cn(C)c(=O)cc3C)C2=O)ncc1C#N [Example 275]	0.01 to 1 µM
< 0.01 µM	0.01 to 1 µM	CCOc1cc([C@H](C)N2CCc3c(cc(Cn4cnc(C)c4)cc3-c3cn(C)nc3C)C2=O)ncc1C#N [Example 276]	0.01 to 1 µM
< 0.01 µM	0.01 to 1 µM	CCOc1cc([C@H](C)N2CCc3c(cc(Cn4ccnc4C)cc3-c3ccnn3C)C2=O)ncc1C#N [Example 279]	0.01 to 1 µM
< 0.01 µM	0.01 to 1 µM	CCOc1cc([C@H](C)N2CCc3c(cc(Cn4ccnc4C)cc3-c3cc(C)nn3C)C2=O)ncc1C#N [Example 280]	< 0.01 µM
< 0.01 µM	0.01 to 1 µM	CCOc1cc([C@H](C)N2CCc3c(cc(Cn4ccnc4C)cc3-c3cn(C)c(=O)cc3C)C2=O)ncc1F [Example 281]	0.01 to 1 µM
< 0.01 µM	0.01 to 1 µM	CCOc1cc([C@H](C)N2CCc3c(cc(Cn4ccnc4C)cc3-c3cc(C(F)F)cnc3C)C2=O)ncc1C#N [Example 282]	0.01 to 1 µM
< 0.01 µM	0.01 to 1 µM	CCOc1cc([C@H](C)N2CCc3c(cc(Cn4ccnc4C)cc3-c3cn(C)c(=O)c(F)c3C)C2=O)ncc1F [Example 283]	0.01 to 1 µM
< 0.01 µM	0.01 to 1 µM	CCOc1cc([C@H](C)N2CCc3c(cc(Cn4ccnc4C)cc3-c3cn(S(C)(=O)=O)nc3C)C2=O)ncc1C#N [Example 284]	0.01 to 1 µM
< 0.01 µM	0.01 to 1 µM	CCOc1cc([C@H](C)N2CCc3c(cc(Cn4ccnc4C)cc3-c3cn(C)c(=O)cc3C(F)F)C2=O)ncc1C#N [Example 285]	< 0.01 µM
< 0.01 µM	0.01 to 1 µM	CCOc1cc([C@H](C)N2CCc3c(cc(Cn4ccnc4C)cc3-c3cn(C(F)F)nc3C)C2=O)ncc1C#N [Example 286]	< 0.01 µM
< 0.01 µM	0.01 to 1 µM	CCOc1cc([C@H](C)N2CCc3c(cc(Cn4ccnc4C)cc3-c3cn(C)c(=O)c(F)c3C)C2=O)ncc1C#N [Example 287]	0.01 to 1 µM
< 0.01 µM	0.01 to 1 µM	CCOc1cc([C@H](C)N2CCc3c(cc(Cn4ccnc4C)cc3-c3cn(C)c(=O)cc3C(F)(F)F)C2=O)ncc1C#N [Example 288]	< 0.01 µM
